From PubChem BioAssay AID2060605 (Molecular Pharmacology Branch, DTP, NCI, 2025)
Values joined by “and” are separate entries in the source; they are usually repeats but may differ in a detail not shown here. Equal entries are not always repeated.

Test system: 947758-054-R-J2-PDC spheroid growth, percent test/control
Assay: Anticancer human tumor 947758-054-R-J2-PDC patient-derived colon adenocarcinoma cell line growth inhibition [CLK]
Settings: spheroids with HUVEC and MSC; for viability, T/C: stronger effect = lower value; active means viability on the fitted dose curve at most 10% of control; inactive means the rest
Outline: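 Multi-cell-type spheroids combined patient-derived tumor cells with HUVEC endothelial cells and human mesenchymal stem cells. Paired agents were dosed in half-log steps down from about clinical Cmax, or from 10 microM where Cmax was unknown.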

[1] = curve of first compound, second compound 0.0316 µM
[2] = curve of first compound, second compound 0.1 µM
[3] = curve of first compound, second compound 0.316 µM
[4] = curve of first compound, second compound 1 µM
[5] = curve of first compound, second compound 3.16 µM
[6] = curve of first compound, second compound 10 µM
[7] = second compound 0.0316 µM, first compound 0.0316 µM
[8] = second compound 0.0316 µM, first compound 0.1 µM
[9] = second compound 0.0316 µM, first compound 0.316 µM
[10] = second compound 0.0316 µM, first compound 1 µM
[11] = second compound 0.1 µM, first compound 0.0316 µM
[12] = second compound 0.1 µM, first compound 0.1 µM
[13] = second compound 0.1 µM, first compound 0.316 µM
[14] = second compound 0.1 µM, first compound 1 µM
[15] = second compound 0.316 µM, first compound 0.0316 µM
[16] = second compound 0.316 µM, first compound 0.1 µM
[17] = second compound 0.316 µM, first compound 0.316 µM
[18] = second compound 0.316 µM, first compound 1 µM
[19] = second compound 1 µM, first compound 0.0316 µM
[20] = second compound 1 µM, first compound 0.1 µM
[21] = second compound 1 µM, first compound 0.316 µM
[22] = second compound 1 µM, first compound 1 µM
[23] = second compound 3.16 µM, first compound 0.0316 µM
[24] = second compound 3.16 µM, first compound 0.1 µM
[25] = second compound 3.16 µM, first compound 0.316 µM
[26] = second compound 3.16 µM, first compound 1 µM
[27] = second compound 10 µM, first compound 0.0316 µM
[28] = second compound 10 µM, first compound 0.1 µM
[29] = second compound 10 µM, first compound 0.316 µM
[30] = second compound 10 µM, first compound 1 µM
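Further: spheroids exposed to compounds for one week before readout.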
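Wherever viability, T/C is given: 100% = DMSO vehicle control wells.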

O=C(c1cc(Cc2n[nH]c(=O)c3ccccc23)ccc1F)N1CCN(C(=O)C2CC2)CC1 + CN1CCN(c2cc(C(=O)Nc3cc4cc(-c5cnn(C)c5)ccc4cn3)ccn2)CC1
< 31.6 nM: IC50 [3] | IC50 [4] | IC50 [5] | IC50 [6]
inactive: viability, T/C [7] 137% | viability, T/C [8] 108% | viability, T/C [9] 127% | viability, T/C [10] 111% | viability, T/C (second compound 0.0316 µM, first compound 3.16 µM) 139% | viability, T/C (second compound 0.0316 µM, first compound 10 µM) 222% | viability, T/C [11] 173% | viability, T/C [12] 187% | viability, T/C [13] 179% | viability, T/C [14] 180% | viability, T/C (second compound 0.1 µM, first compound 3.16 µM) 206% | viability, T/C (second compound 0.1 µM, first compound 10 µM) 119%
active: viability, T/C [15] 3.05% | viability, T/C [16] 3.52% | viability, T/C [17] 3.12% | viability, T/C [18] 2.9% | viability, T/C (second compound 0.316 µM, first compound 3.16 µM) 2.97% | viability, T/C (second compound 0.316 µM, first compound 10 µM) 2.81% | viability, T/C [19] 0.13% | viability, T/C [20] 0.13% | viability, T/C [21] 0.15% | viability, T/C [22] 0.09% | viability, T/C (second compound 1 µM, first compound 3.16 µM) 0.15% | viability, T/C (second compound 1 µM, first compound 10 µM) 0.18% | viability, T/C [23] 0.14% | viability, T/C [24] 0.24% | viability, T/C [25] 0.22% | viability, T/C [26] 0.18% | viability, T/C (second compound 3.16 µM, first compound 3.16 µM) 0.73% | viability, T/C (second compound 3.16 µM, first compound 10 µM) 0.27% | viability, T/C [27] 0.31% | viability, T/C [28] 0.36% | viability, T/C [29] 0.95% | viability, T/C [30] 0.29% | viability, T/C (second compound 10 µM, first compound 3.16 µM) 0.44% | viability, T/C (second compound 10 µM, first compound 10 µM) 0.35%
> 10000 nM: IC50 [1] | IC50 [2]

COc1c(OCCCN2CCOCC2)ccc2c3n(c(=NC(=O)c4cnc(N)nc4)nc12)CCN3 + CNC(=O)c1ccc(Nc2nc(OC3CCCC3)c3c(-c4ccc5nc(C)oc5c4)c[nH]c3n2)c(OC)c1
14.7 nM: IC50 [2]
active: viability, T/C [17] 8.06% | viability, T/C [18] 3.94% | viability, T/C [20] 4.35% | viability, T/C [21] 3.7% | viability, T/C [22] 2.28% | viability, T/C [23] 9.11% | viability, T/C [24] 3.98% | viability, T/C [25] 3.84% | viability, T/C [26] 2.88% | viability, T/C [27] 8.44% | viability, T/C [28] 4.43% | viability, T/C [29] 2.95% | viability, T/C [30] 2.09%
7.81 nM: IC50 [3]
< 3.16 nM: IC50 [4] | IC50 [5] | IC50 [6]
18.1 nM: IC50 [1]
inactive: viability, T/C (second compound 0.0316 µM, first compound 0.00316 µM) 77% | viability, T/C (second compound 0.0316 µM, first compound 0.01 µM) 53.6% | viability, T/C [7] 39.2% | viability, T/C [8] 37.2% | viability, T/C [9] 25.1% | viability, T/C [10] 13.4% | viability, T/C (second compound 0.1 µM, first compound 0.00316 µM) 69.9% | viability, T/C (second compound 0.1 µM, first compound 0.01 µM) 60.6% | viability, T/C [11] 30.2% | viability, T/C [12] 22.2% | viability, T/C [13] 14.9% | viability, T/C [14] 10.6% | viability, T/C (second compound 0.316 µM, first compound 0.00316 µM) 71.4% | viability, T/C (second compound 0.316 µM, first compound 0.01 µM) 44.6% | viability, T/C [15] 21.1% | viability, T/C [16] 11.8% | viability, T/C (second compound 1 µM, first compound 0.00316 µM) 49.8% | viability, T/C (second compound 1 µM, first compound 0.01 µM) 30.4% | viability, T/C [19] 10.1% | viability, T/C (second compound 3.16 µM, first compound 0.00316 µM) 43.2% | viability, T/C (second compound 3.16 µM, first compound 0.01 µM) 17.7% | viability, T/C (second compound 10 µM, first compound 0.00316 µM) 25.4% | viability, T/C (second compound 10 µM, first compound 0.01 µM) 15.1%

COc1cccc2c1C(=O)c1c(O)c3c(c(O)c1C2=O)CC(O)(C(=O)CO)CC3OC1CC(N)C(O)C(C)O1 (stereo unspecified)
active: viability, T/C (compound 3.16 µM) 0.28% and 0.34% | viability, T/C (compound 10 µM) 3.11% and 2.84%
11.3%: viability, T/C (compound 1 µM)
inactive: viability, T/C (compound 0.0316 µM) 94.6% and 56.2% | viability, T/C (compound 0.1 µM) 39.9% and 44.2% | viability, T/C (compound 0.316 µM) 22.5% and 26.6%
84.9 nM and 58.5 nM: IC50 (curve of compound)
